Experimental data published in patent publication US12404241B2 (Celgene Corporation, priority 2018, dated 2025).
Where a name gives a salt, the structure may show the parent alone.

Target: T1, AR (Homo sapiens, UniProt P10275)
T1 construct: endogenous in cells; host or cells: VCaP cells
T1 sequence (P10275 1-920): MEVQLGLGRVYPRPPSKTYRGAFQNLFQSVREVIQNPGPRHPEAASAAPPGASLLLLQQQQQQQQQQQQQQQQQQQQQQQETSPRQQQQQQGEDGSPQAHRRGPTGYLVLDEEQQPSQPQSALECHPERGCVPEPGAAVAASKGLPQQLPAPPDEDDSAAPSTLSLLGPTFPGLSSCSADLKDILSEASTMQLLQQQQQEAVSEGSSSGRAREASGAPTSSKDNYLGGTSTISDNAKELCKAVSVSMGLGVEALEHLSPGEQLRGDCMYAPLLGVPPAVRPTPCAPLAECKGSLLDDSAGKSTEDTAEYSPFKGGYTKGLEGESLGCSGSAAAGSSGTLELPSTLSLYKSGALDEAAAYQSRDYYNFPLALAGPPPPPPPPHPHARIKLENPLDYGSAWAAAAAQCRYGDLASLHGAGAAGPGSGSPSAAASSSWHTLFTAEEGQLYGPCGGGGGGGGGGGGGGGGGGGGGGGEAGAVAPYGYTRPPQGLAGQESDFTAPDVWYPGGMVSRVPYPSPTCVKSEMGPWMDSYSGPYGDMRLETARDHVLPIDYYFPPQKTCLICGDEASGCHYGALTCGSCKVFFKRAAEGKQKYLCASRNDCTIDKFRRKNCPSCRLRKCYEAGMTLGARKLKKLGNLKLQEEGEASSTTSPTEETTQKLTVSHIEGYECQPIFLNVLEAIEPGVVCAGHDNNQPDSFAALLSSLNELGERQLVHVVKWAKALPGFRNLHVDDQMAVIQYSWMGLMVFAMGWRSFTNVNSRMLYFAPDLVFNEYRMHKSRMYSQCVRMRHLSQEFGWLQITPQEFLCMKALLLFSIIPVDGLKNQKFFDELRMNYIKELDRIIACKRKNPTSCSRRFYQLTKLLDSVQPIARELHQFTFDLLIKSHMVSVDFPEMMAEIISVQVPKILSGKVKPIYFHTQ
Experiment: VCAP AR Degradation Assay
Assay type: cell-based
Settings: for Y (AR degradation efficiency, % of DMSO control): class symbols *; for DC50: class symbols A-C, read-out: DC50
Method in brief: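 Compounds were plated as 10-point 1:3 series reaching 5 μM final, then VCaP cells were seeded onto them and incubated 24 h at 37 °C. Cells were lysed cold, and total AR was measured by sandwich ELISA relative to 0.1% DMSO wells.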

Row | SMILES | Y (AR degradation efficiency, % of DMSO control) | DC50
1 | CC(C)c1cc(N2C(=S)N(c3ccc(C#N)c(Cl)c3)C(=O)C2(C)C)ccc1OCCN1C[C@@H](C)N(CC(=O)Nc2cc(C#N)cc(NC3CCC(=O)NC3=O)c2)[C@@H](C)C1 (stereo partly drawn) [Example 250, 2-((2S,6R)-4-(2-(4-(3-(3-chloro-4-cyanophenyl)-5,5-dimethyl-4-oxo-2-thioxoimidazolidin-1-yl)-2-isopropylphenoxy)ethyl)-2,6-dimethylpiperazin-1-yl)-N-(3-cyano-5-(2,6-dioxopiperidin-3-ylamino)phenyl)acetamide] | * (0<Y<=25%) | < 100 nM
2 | C[C@@H]1CN(CCOc2ccc(N3C(=S)N(c4ccc(C#N)c(C(F)(F)F)c4)C(=O)C3(C)C)cc2F)C[C@H](C)N1CC(=O)Nc1cccc(NC2CCC(=O)NC2=O)c1 (stereo partly drawn) [Example 278, 2-((2S,6R)-4-(2-(4-(3-(4-cyano-3-(trifluoromethyl)phenyl)-5,5-dimethyl-4-oxo-2-thioxoimidazolidin-1-yl)-2-fluorophenoxy)ethyl)-2,6-dimethylpiperazin-1-yl)-N-(3-(2,6-dioxopiperidin-3-ylamino)phenyl)acetamide] | * (0<Y<=25%) | < 100 nM
3 | C[C@@H]1CN(CCOc2ccc(N3C(=S)N(c4ccc(C#N)c(Cl)c4)C(=O)C3(C)C)cc2C2CC2)C[C@H](C)N1CC(=O)Nc1cc(Cl)cc(NC2CCC(=O)NC2=O)c1 (stereo partly drawn) [Example 220, 2-((2S,6R)-4-(2-(4-(3-(3-chloro-4-cyanophenyl)-5,5-dimethyl-4-oxo-2-thioxoimidazolidin-1-yl)-2-cyclopropylphenoxy)ethyl)-2,6-dimethylpiperazin-1-yl)-N-(3-chloro-5-(2,6-dioxopiperidin-3-ylamino)phenyl)acetamide] | ** (25%<Y<=35%) | < 100 nM
4 | CCc1cc(N2C(=S)N(c3ccc(C#N)c(C(F)(F)F)c3)C(=O)C2(C)C)ccc1OCCN1CCN(CC(=O)Nc2cc(Cl)cc(NC3CCC(=O)NC3=O)c2)CC1 (stereo not drawn) [Example 40, hydrochloride] | * (0<Y<=25%) | < 100 nM
5 | CC1(C)C(=O)N(c2cnc(C#N)c(C(F)(F)F)c2)C(=S)N1c1ccc(OCCN2CCN(CC(=O)Nc3cc(Cl)cc(NC4CCC(=O)NC4=O)c3)CC2)cc1 (stereo not drawn) [Example 24, 2-(4-(2-(4-(3-(6-cyano-5-(trifluoromethyl)pyridin-3-yl)-5,5-dimethyl-4-oxo-2-thioxoimidazolidin-1-yl)-2-ethylphenoxy)ethyl)-2,2-dimethylpiperazin-1-yl)-N-(3-((2,6-dioxopiperidin-3-yl)amino)-5-fluorophenyl)acetamide hydrochoride] | * (0<Y<=25%) | < 100 nM
6 | CCc1cc(N2C(=S)N(c3ccc(C#N)c(C(F)(F)F)c3)C(=O)C2(C)C)ccc1OCCN1C[C@@H](C)N(CC(=O)Nc2cc(Cl)cc(NC3CCC(=O)NC3=O)c2)C[C@@H]1C (stereo partly drawn) [Example 123, N-(3-chloro-5-(2,6-dioxopiperidin-3-ylamino)phenyl)-2-((2R,5S)-4-(2-(4-(3-(4-cyano-3-(trifluoromethyl)phenyl)-5,5-dimethyl-4-oxo-2-thioxoimidazolidin-1-yl)-2-ethylphenoxy)ethyl)-2,5-dimethylpiperazin-1-yl)acetamide] | * (0<Y<=25%) | < 100 nM
7 | CCc1cc(N2C(=S)N(c3ccc(C#N)c(C(F)(F)F)c3)C(=O)C2(C)C)ccc1OCCN1CCN(CC(=O)Nc2cccc(NC3CCC(=O)NC3=O)c2)[C@H](C(F)(F)F)C1 (stereo partly drawn) [Example 246, 2-((S)-4-(2-(4-(3-(4-cyano-3-(trifluoromethyl)phenyl)-5,5-dimethyl-4-oxo-2-thioxoimidazolidin-1-yl)-2-ethylphenoxy)ethyl)-2-(trifluoromethyl)piperazin-1-yl)-N-(3-(2,6-dioxopiperidin-3-ylamino)phenyl)acetamide] | * (0<Y<=25%) | < 100 nM
8 | CCc1cc(N2C(=S)N(c3ccc(C#N)c(C(F)(F)F)c3)C(=O)C2(C)C)ccc1OCCN1CC2CCC(C1)N2CC(=O)Nc1cccc(NC2CCC(=O)NC2=O)c1 (stereo not drawn) [Example 177, 2-(3-(2-(4-(3-(4-cyano-3-(trifluoromethyl)phenyl)-5,5-dimethyl-4-oxo-2-thioxoimidazolidin-1-yl)-2-ethylphenoxy)ethyl)-3,8-diazabicyclo[3.2.1]octan-8-yl)-N-(3-(2,6-dioxopiperidin-3-ylamino)phenyl)acetamide] | * (0<Y<=25%) | 100 to 500 nM
9 | C[C@@H]1CN(CCOc2ccc(N3C(=S)N(c4ccc(C#N)c(C(F)(F)F)c4)C(=O)C3(C)C)cc2C2CC2)C[C@H](C)N1CC(=O)Nc1cccc(N[C@@H]2CCC(=O)NC2=O)c1 [Example 288, 2-((2R,6S)-4-(2-(4-(3-(4-cyano-3-(trifluoromethyl)phenyl)-5,5-dimethyl-4-oxo-2-thioxoimidazolidin-1-yl)-2-cyclopropylphenoxy)ethyl)-2,6-dimethylpiperazin-1-yl)-N-(3-((R)-2,6-dioxopiperidin-3-ylamino)phenyl)acetamide] | * (0<Y<=25%) | < 100 nM
10 | CCc1cc(N2C(=S)N(c3ccc(C#N)c(C(F)(F)F)c3)C(=O)C2(C)C)ccc1OCCN1C[C@@H](C)N(CC(=O)Nc2cccc(N[C@@H]3CCC(=O)NC3=O)c2)[C@@H](C)C1 [Example 286, 2-((2R,6S)-4-(2-(4-(3-(4-cyano-3-(trifluoromethyl)phenyl)-5,5-dimethyl-4-oxo-2-thioxoimidazolidin-1-yl)-2-ethylphenoxy)ethyl)-2,6-dimethylpiperazin-1-yl)-N-(3-((R)-2,6-dioxopiperidin-3-ylamino)phenyl)acetamide] | * (0<Y<=25%) | < 100 nM
11 | CCc1cc(N2C(=S)N(c3ccc(C#N)c(Cl)c3)C(=O)C2(C)C)ccc1OCCN1CCN(CC(=O)Nc2cccc(NC3CCC(=O)NC3=O)c2)[C@H](C)C1 (stereo partly drawn) [Example 168, 2-((R)-4-(2-(4-(3-(3-chloro-4-cyanophenyl)-5,5-dimethyl-4-oxo-2-thioxoimidazolidin-1-yl)-2-ethylphenoxy)ethyl)-2-methylpiperazin-1-yl)-N-(3-(2,6-dioxopiperidin-3-ylamino)phenyl)acetamide] | * (0<Y<=25%) | < 100 nM
12 | CCc1cc(N2C(=S)N(c3cnc(C#N)c(C(F)(F)F)c3)C(=O)C23CCC3)ccc1OCCN1CCN(CC(=O)Nc2cc(F)cc(NC3CCC(=O)NC3=O)c2)[C@H](C)C1 (stereo partly drawn) [Example 107, 2-((R)-4-(2-(4-(7-(6-cyano-5-(trifluoromethyl)pyridin-3-yl)-8-oxo-6-thioxo-5,7-diazaspiro[3.4]octan-5-yl)-2-ethylphenoxy)ethyl)-2-methylpiperazin-1-yl)-N-(3-(2,6-dioxopiperidin-3-ylamino)-5-fluorophenyl)acetamide] | * (0<Y<=25%) | < 100 nM
13 | CC1(C)C(=O)N(c2cnc(C#N)c(C(F)(F)F)c2)C(=S)N1c1ccc(OCCN2CCN(CC(=O)Nc3cc(Cl)cc(NC4CCC(=O)NC4=O)c3)CC2)c(CC(F)F)c1 (stereo not drawn) [Example 67, N-(3-chloro-5-(2,6-dioxopiperidin-3-ylamino)phenyl)-2-(4-(2-(4-(3-(6-cyano-5-(trifluoromethyl)pyridin-3-yl)-5,5-dimethyl-4-oxo-2-thioxoimidazolidin-1-yl)-2-(2,2-difluoroethyl)phenoxy)ethyl)piperazin-1-yl)acetamide] | * (0<Y<=25%) | < 100 nM
14 | CC1(C)C(=O)N(c2ccc(C#N)c(C(F)(F)F)c2)C(=S)N1c1ccc(OCCN2CCN(CC(=O)Nc3cccc(NC4CCC(=O)NC4=O)c3)CC2)c(C2CCC2)c1 (stereo not drawn) [Example 31, trifluoroacetate] | * (0<Y<=25%) | < 100 nM
15 | CCc1cc(N2C(=S)N(c3cnc(C#N)c(C(F)(F)F)c3)C(=O)C2(C)C)ccc1OCCN1CCN(CC(=O)Nc2cc(Cl)cc(NC3CCC(=O)NC3=O)c2)C2(CC2)C1 (stereo not drawn) [Example 102, N-(3-chloro-5-(2,6-dioxopiperidin-3-ylamino)phenyl)-2-(7-(2-(4-(3-(6-cyano-5-(trifluoromethyl)pyridin-3-yl)-5,5-dimethyl-4-oxo-2-thioxoimidazolidin-1-yl)-2-ethylphenoxy)ethyl)-4,7-diazaspiro[2.5]octan-4-yl)acetamide] | * (0<Y<=25%) | < 100 nM
